Among the data in patent publication US8435978B2, “Substituted sulfonamide compounds” (Gruenenthal GmbH, priority 2006, dated 2013) are inhibition values, retold here.

In general, inhibition refers to the relative decrease from the control value, in per cent.

Counter-ions that a name gives are not always drawn. Like-named read-outs stand apart in the source and are kept apart here.

One test deals with T1, B1R receptor of the rat (Rattus norvegicus, UniProt P97583).
T1 construct: host or cells: CHO K1 cells (Chinese hamster ovary), stably transfected
T1 sequence (P97583 1-337): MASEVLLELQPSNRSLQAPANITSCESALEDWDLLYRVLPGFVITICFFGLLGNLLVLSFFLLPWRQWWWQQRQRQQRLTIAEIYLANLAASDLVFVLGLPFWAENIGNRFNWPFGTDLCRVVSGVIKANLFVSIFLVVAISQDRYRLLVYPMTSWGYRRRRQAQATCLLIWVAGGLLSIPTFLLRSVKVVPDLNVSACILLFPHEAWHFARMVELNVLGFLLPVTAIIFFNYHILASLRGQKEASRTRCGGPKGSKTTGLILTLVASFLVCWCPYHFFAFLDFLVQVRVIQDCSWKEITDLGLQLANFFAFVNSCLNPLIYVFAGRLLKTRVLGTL
In words: Functional study on the bradykinin receptor 1 (B1R), FLIPR Ca2+ assay, rB1R cells. Conditions: agonist Des-Arg9-bradykinin 100 nM, % inhibition compared with the maximum achievable inhibition, read-out: B1R Antagonism, rat [10 μM] % Inhibition. The format is cell-based. In a few lines: (§1)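 Readout: peak Fluo-4 Ca2+ fluorescence, FLIPR. Stable CHO K1 hB1R or rB1R cells; cpd 10 μM, 10 min preincubation, then agonist (hB1R: Lys-Des-Arg9-BK 0.5 nM; rB1R: Des-Arg9-BK 100 nM). Value = % inhibition relative to maximal achievable inhibition.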

The next test has as its target T2, human B1R receptor (Homo sapiens, UniProt P46663).
T2 construct: host or cells: CHO K1 cells (Chinese hamster ovary), stably transfected
T2 sequence (P46663 1-353): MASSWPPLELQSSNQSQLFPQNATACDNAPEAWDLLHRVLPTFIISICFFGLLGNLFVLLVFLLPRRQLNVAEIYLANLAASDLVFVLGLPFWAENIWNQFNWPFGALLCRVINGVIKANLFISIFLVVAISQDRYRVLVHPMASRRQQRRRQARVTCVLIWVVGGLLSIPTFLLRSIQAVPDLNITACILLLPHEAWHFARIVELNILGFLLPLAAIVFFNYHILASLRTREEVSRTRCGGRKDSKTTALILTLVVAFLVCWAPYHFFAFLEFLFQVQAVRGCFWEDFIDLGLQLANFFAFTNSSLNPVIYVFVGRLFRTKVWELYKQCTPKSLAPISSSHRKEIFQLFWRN
In words: Functional study on the bradykinin receptor 1 (B1R), FLIPR Ca2+ assay, hB1R cells. Conditions: agonist Lys-Des-Arg9-bradykinin 0.5 nM, % inhibition compared with the maximum achievable inhibition, read-out: B1R Antagonism, human [10 μM] % Inhibition. The format is cell-based. Summed up:
as §1

Regarding `COc1cc(C)c(S(=O)(=O)N2CCCCC2COCC(=O)N2CCN(C(=O)OC(C)(C)C)CC2)c(C)c1` (stereo not drawn) [Example 101, tert-butyl 4-(2-((1-(4-methoxy-2,6-dimethylphenylsulfonyl)piperidin-2-yl)methoxy)acetyl)piperazin-1-carboxylate], the inhibition at 10 µM came to 100% at B1R receptor of the rat (CHO-K1, test substance 10 μM) and 100% on human B1R receptor (CHO-K1, test substance 10 μM).

Consider `COc1cc(C)c(S(=O)(=O)N2CCCCC2COCC(=O)N2CCNCC2)c(C)c1` (stereo not drawn) [Example 102, 2-((1-(4-methoxy-2,6-dimethylphenylsulfonyl)piperidin-2-yl)methoxy)-1-(piperazin-1-yl)ethanone hydrochloride], for which the inhibition at 10 µM turned out to be 100% at B1R receptor of the rat (CHO-K1, test substance 10 μM) and 104% at human B1R receptor (CHO-K1, test substance 10 μM).

As for `COc1cc(C)c(S(=O)(=O)N2CCCCC2COCC(=O)N2CCC(c3nc(-c4ccncc4)no3)CC2)c(C)c1` (stereo not drawn) [Example 103, 2-((1-(4-methoxy-2,6-dimethylphenylsulfonyl)piperidin-2-yl)methoxy)-1-(4-(3-(pyridin-4-yl)-1,2,4-oxadiazol-5-yl)piperidin-1-yl)ethanone], the inhibition at 10 µM was 100% at B1R receptor of the rat (CHO-K1, test substance 10 μM) and 105% on human B1R receptor (CHO-K1, test substance 10 μM).

For the compound `COc1cc(C)c(S(=O)(=O)N2CCCCC2COCC(=O)N2CCN(C3CCOCC3)CC2)c(C)c1` (stereo not drawn) [Example 104, 2-((1-(4-methoxy-2,6-dimethylphenylsulfonyl)piperidin-2-yl)methoxy)-1-(4-(tetrahydro-2H-pyran-4-yl)piperazin-1-yl)ethanone], the inhibition at 10 µM turned out to be 101% on B1R receptor of the rat (CHO-K1, test substance 10 μM) and 105% at human B1R receptor (CHO-K1, test substance 10 μM).

In the case of `COc1cc(C)c(S(=O)(=O)N2CCCCC2COCC(=O)N2CCN(C3CCC(C)CC3)CC2)c(C)c1` (stereo not drawn) [Example 105, 2-((1-(4-methoxy-2,6-dimethylphenylsulfonyl)piperidin-2-yl)methoxy)-1-(4-(4-methylcyclohexyl)piperazin-1-yl)ethanone], the inhibition at 10 µM at B1R receptor of the rat (CHO-K1, test substance 10 μM) came to 100%; at human B1R receptor (CHO-K1, test substance 10 μM) it was 106%.

As for `COc1cc(C)c(S(=O)(=O)N2CCCCC2COCC(=O)N2CCN(CC3CCN(C)CC3)CC2)c(C)c1` (stereo not drawn) [Example 106, 2-((1-(4-methoxy-2,6-dimethylphenylsulfonyl)piperidin-2-yl)methoxy)-1-(4-((1-methylpiperidin-4-yl)methyl)piperazin-1-yl)ethanone dihydrochloride], the inhibition at 10 µM on B1R receptor of the rat (CHO-K1, test substance 10 μM) turned out to be 103%; on human B1R receptor (CHO-K1, test substance 10 μM) it was 103%.

For the compound `Cc1cc(C)c(S(=O)(=O)N2CCCCC2COCC(=O)N2CCN(C3CCN(C)CC3)CC2)c(C)c1` (stereo not drawn) [Example 107, 2-((1-(mesitylsulfonyl)piperidin-2-yl)methoxy)-1-(4-(1-methylpiperidin-4-yl)piperazin-1-yl)ethanone], the inhibition at 10 µM on B1R receptor of the rat (CHO-K1, test substance 10 μM) stood at 102%; at human B1R receptor (CHO-K1, test substance 10 μM), 102%.

As for `CN1CCC(N2CCN(C(=O)COCC3CCCCN3S(=O)(=O)c3c(Cl)cc(C(F)(F)F)cc3Cl)CC2)CC1` (stereo not drawn) [Example 108, 2-((1-(2,6-dichloro-4-(trifluoromethyl)phenylsulfonyl)piperidin-2-yl)methoxy)-1-(4-(1-methylpiperidin-4-yl)piperazin-1-yl)ethanone], the inhibition at 10 µM at B1R receptor of the rat (CHO-K1, test substance 10 μM) was 102%; on human B1R receptor (CHO-K1, test substance 10 μM), 102%.

On to `Cc1cccc(Cl)c1S(=O)(=O)N1CCCCC1COCC(=O)N1CCN(C2CCN(C)CC2)CC1` (stereo not drawn) [Example 109, 2-((1-(2-chloro-6-methylphenylsulfonyl)piperidin-2-yl)methoxy)-1-(4-(1-methylpiperidin-4-yl)piperazin-1-yl)ethanone], for which the inhibition at 10 µM on B1R receptor of the rat (CHO-K1, test substance 10 μM) stood at 102%; on human B1R receptor (CHO-K1, test substance 10 μM), 103%.

With `CN1CCC(N2CCN(C(=O)COCC3CCCCN3S(=O)(=O)c3cccc4ccccc34)CC2)CC1` (stereo not drawn) [Example 110, 1-(4-(1-methylpiperidin-4-yl)piperazin-1-yl)-2-((1-(naphthalen-1-ylsulfonyl)piperidin-2-yl)methoxy)ethanone], the inhibition at 10 µM stood at 102% on B1R receptor of the rat (CHO-K1, test substance 10 μM) and 102% on human B1R receptor (CHO-K1, test substance 10 μM).

`CN1CCC(N2CCN(C(=O)COCC3CCCCN3S(=O)(=O)c3ccc4ccccc4c3)CC2)CC1` (stereo not drawn) [Example 111, 1-(4-(1-methylpiperidin-4-yl)piperazin-1-yl)-2-((1-(naphthalen-2-ylsulfonyl)piperidin-2-yl)methoxy)ethanone]: the inhibition at 10 µM at B1R receptor of the rat (CHO-K1, test substance 10 μM) turned out to be 101%; on human B1R receptor (CHO-K1, test substance 10 μM), 91.9%.

Take `COc1cc(C)c(S(=O)(=O)N2CCCCC2COCC(=O)N2CCC(N3CCN(C)CC3)CC2)c(C)c1` (stereo not drawn) [Example 112, 2-((1-(4-methoxy-2,6-dimethylphenylsulfonyl)piperidin-2-yl)methoxy)-1-(4-(4-methylpiperazin-1-yl)piperidin-1-yl)ethanone hydrochloride]: the inhibition at 10 µM at B1R receptor of the rat (CHO-K1, test substance 10 μM) is 102%; at human B1R receptor (CHO-K1, test substance 10 μM), 102%.

For the compound `COc1cc(C)c(S(=O)(=O)N2CCCCC2COCC(=O)N2CCN(c3ncnc4ccsc34)CC2)c(C)c1` (stereo not drawn) [Example 113, 2-((1-(4-methoxy-2,6-dimethylphenylsulfonyl)piperidin-2-yl)methoxy)-1-(4-(thieno[3,2-d]pyrimidin-4-yl)piperazin-1-yl)ethanone], the inhibition at 10 µM on B1R receptor of the rat (CHO-K1, test substance 10 μM) turned out to be 97.1%; at human B1R receptor (CHO-K1, test substance 10 μM), 99.2%.

`Cc1cc(S(=O)(=O)N2CCCCC2COCC(=O)N2CCN(C3CCN(C)CC3)CC2)c(C)cc1Cl` (stereo not drawn) [Example 114, 2-((1-(4-chloro-2,5-dimethylphenylsulfonyl)piperidin-2-yl)methoxy)-1-(4-(1-methylpiperidin-4-yl)piperazin-1-yl)ethanone dihydrochloride]: the inhibition at 10 µM at B1R receptor of the rat (CHO-K1, test substance 10 μM) amounted to 103%; on human B1R receptor (CHO-K1, test substance 10 μM), 102%.

In the case of `CN1CCC(N2CCN(C(=O)COCC3CCCCN3S(=O)(=O)c3ccc(Cl)c(C(F)(F)F)c3)CC2)CC1` (stereo not drawn) [Example 115, 2-((1-(4-chloro-3-(trifluoromethyl)phenylsulfonyl)piperidin-2-yl)methoxy)-1-(4-(1-methylpiperidin-4-yl)piperazin-1-yl)ethanone], the inhibition at 10 µM on B1R receptor of the rat (CHO-K1, test substance 10 μM) was 58.1%; on human B1R receptor (CHO-K1, test substance 10 μM), 102%.

In the case of `COc1cc(C)c(S(=O)(=O)N2CCCCC2COCC(=O)N2CCC(=O)CC2)c(C)c1` (stereo not drawn) [Example 116, 1-(2-((1-(4-methoxy-2,6-dimethylphenylsulfonyl)piperidin-2-yl)methoxy)acetyl)piperidin-4-one], the inhibition at 10 µM on B1R receptor of the rat (test substance 10 μM, rB1R CHO K1 cells) came out at 101%; at human B1R receptor (test substance 10 μM, hB1R CHO K1 cells), 74.2%.

For `COc1cc(C)c(S(=O)(=O)N2CCCCC2COCC(=O)N2CCN(Cc3nc4ccccc4[nH]3)CC2)c(C)c1` (stereo not drawn) [Example 117, 1-(4-((1H-benzo[d]imidazol-2-yl)methyl)piperazin-1-yl)-2-((1-(4-methoxy-2,6-dimethylphenylsulfonyl)piperidin-2-yl)methoxy)ethanone], the inhibition at 10 µM on B1R receptor of the rat (CHO-K1, test substance 10 μM) came to 101%; at human B1R receptor (CHO-K1, test substance 10 μM), 101%.

For the compound `CN1CCC(N2CCN(C(=O)COCC3CCCCN3S(=O)(=O)c3c(Cl)cc(Cl)cc3Cl)CC2)CC1` (stereo not drawn) [Example 118, 1-(4-(1-methylpiperidin-4-yl)piperazin-1-yl)-2-((1-(2,4,6-trichlorophenylsulfonyl)piperidin-2-yl)methoxy)ethanone], the inhibition at 10 µM on B1R receptor of the rat (CHO-K1, test substance 10 μM) turned out to be 102%; on human B1R receptor (CHO-K1, test substance 10 μM), 104%.

Turning to `CC(C)c1cc(C(C)C)c(S(=O)(=O)N2CCCCC2COCC(=O)N2CCN(C3CCN(C)CC3)CC2)c(C(C)C)c1` (stereo not drawn) [Example 119, 1-(4-(1-methylpiperidin-4-yl)piperazin-1-yl)-2-((1-(2,4,6-triisopropylphenylsulfonyl)piperidin-2-yl)methoxy)ethanone], the inhibition at 10 µM on B1R receptor of the rat (CHO-K1, test substance 10 μM) came to 61.9%; on human B1R receptor (CHO-K1, test substance 10 μM), 95.9%.

With `CN1CCC(N2CCN(C(=O)COCC3CCCCN3S(=O)(=O)c3ccc(Cl)cc3Cl)CC2)CC1` (stereo not drawn) [Example 120, 2-((1-(2,4-dichlorophenylsulfonyl)piperidin-2-yl)methoxy)-1-(4-(1-methylpiperidin-4-yl)piperazin-1-yl)ethanone], the inhibition at 10 µM was found to be 103% at B1R receptor of the rat (CHO-K1, test substance 10 μM) and 103% on human B1R receptor (CHO-K1, test substance 10 μM).

For `CN1CCC(N2CCN(C(=O)COCC3CCCCN3S(=O)(=O)c3cccc(Br)c3)CC2)CC1` (stereo not drawn) [Example 121, 2-((1-(3-bromophenylsulfonyl)piperidin-2-yl)methoxy)-1-(4-(1-methylpiperidin-4-yl)piperazin-1-yl)ethanone], the inhibition at 10 µM on B1R receptor of the rat (CHO-K1, test substance 10 μM) was 52.7%; at human B1R receptor (CHO-K1, test substance 10 μM), 70.5%.
